Measured values taken from patent US20230372569A1 (priority 2020, published 2023).

Assays:
[1] = acetic acid value given as TWA; cited from earlier work
[2] = test system: Clostridium difficile ATCC43539; assay: Room decontamination test, inoculated dirty petri dishes (5% horse serum), two hours; format: cell-based; conditions: 5% w/w peracetic acid solution, 66 m^3 room
Method: A room of volume 66 m^3 (6 m×4.2 m (floor area)×2.6 m (height)) was used as a test room. The room was closed in the usual way, that a domestic, clinic or hospital room would be closed off by closing windows, doors and external vents and turning off any air-conditioning. However, the room was not hermetically sealed and a small amount of airflow was permissible. The temperature of the test room was ambient room temperature (between 20° C. and 25° C.).
A peracetic acid vapour/mist generator (nebulizer) was positioned along the smaller wall, at a height of about 1.21 m.
The peracetic acid vapour/mist generator utilised a commercially available 5% w/w peracetic acid solution. Peracetic acid is sold as an equilibrium mixture of hydrogen peroxide, acetic acid and water. 5% w/w Peracetic acid solution typically comprises 20-30% w/w hydrogen peroxide, 6-10% w/w acetic acid 4.5-5.4% w/w peracetic acid and the balance being water. In many embodiments of the present invention, the 5% w/w peracetic acid solution used comprised 24% w/w hydrogen peroxide, 7.5% w/w acetic acid 5% w/w peracetic acid and the balance being water.
The peracetic acid vapour/mist generator was also accompanied by a UV light that was located in the same housing. […] That is a known germicidal wavelength. The UV light shone upon all the exposed surfaces in the room. The UV lamp was 18 watts. The bulb used synthetic quartz to prevent escape of 185 nm ozone-forming radiation.
The UV-C light and peracetic acid vapour/mist generator could be operated independently or simultaneously, allowing for a direct comparison of the individual decontaminating agents with each other and with the combination.
Immediately before commencing sterilization, petri dishes containing inoculum were placed at three discrete locations within the room—one close to the UV/peracetic acid device (e.g. 80 cm from the device), one in the middle of the room and the other at the opposite end of the room. The dishes were also placed at differing heights. The petridishes were “dirty” and contained 5% horse serum. […] The number of microorganisms was counted. […]

Candida albicans = assay: Deactivation kinetics (Weibull model) with PAA, with and without UVC; format: cell-based
Description: (§1) In most cases, especially for the PAA+UVC combination, they are nonlinear in coordinates log10[CFU]:-t. Formally it means that it was not a classical first-order reaction. The first-order model assumes that the cells and spores in a population have the same resistance and that the relationship between the decline in the number of survivors over the treatment time is linear. The model can be written as log10(N/N0)=−kt, where N0 is the initial number of cells (CFU/ml), N is the number of survivors after an exposure time t (CFU/ml), k is the rate parameter, and t is the treatment time (min). The D value, a typical index of inactivation kinetics, is the decimal reduction time in minutes (time required to kill 90% of the organisms).
(§2) The Weibull model assumes that the survival curve is a cumulative distribution of lethal effects. The cumulative form of the Weibull distribution is given by log10(N/N0)=[…], where b and n are the scale and shape parameters, respectively. When the shape parameter n is greater than or less than 1, the shape of the survival curve will present a shoulder or tailing, respectively. When n=1, the cumulative form of the Weibull distribution reduces to the first-order rate equation. For the Weibull model, the parameter td, which is analogous to the traditional D value, can be determined. td is the time required for d log reductions of the number of microorganisms and was calculated by the parameters b and n as shown in the equation
(§3) where d is the desired log reduction, b=k and 2.303 is coefficient due to the shift from base e logarithms to base 10 ones.

Pseudomonas aeruginosa = assay: as above; format: cell-based
Description: as §1, §2, §3

Salmonella enterica = assay: as above; format: cell-based
Description: as §1, §2, §3

Staphylococcus aureus = assay: as above; format: cell-based
Description: as §1, §2, §3

Structure (SMILES) | vapour safety level [1] [ppm] | Log reduction, Location 1 ([2]; Location 1 (close to device)) | Log reduction, Location 2 ([2]; Location 2 (middle of room)) | Log reduction, Location 3 ([2]; Location 3 (opposite end of room)) | D (decimal reduction time) (Candida albicans) [min] | k (Weibull deactivation constant) (Candida albicans) [h⁻¹] | n (Weibull shape parameter) (Candida albicans) | D (decimal reduction time) (Pseudomonas aeruginosa) [min] | k (Weibull deactivation constant) (Pseudomonas aeruginosa) [h⁻¹] | n (Weibull shape parameter) (Pseudomonas aeruginosa) | D (decimal reduction time) (Salmonella enterica) [min] | k (Weibull deactivation constant) (Salmonella enterica) [h⁻¹] | n (Weibull shape parameter) (Salmonella enterica) | D (decimal reduction time) (Staphylococcus aureus) [min] | k (Weibull deactivation constant) (Staphylococcus aureus) [h⁻¹] | n (Weibull shape parameter) (Staphylococcus aureus)
CC(=O)O [acetic acid] | 10 |  |  |  |  |  |  |  |  |  |  |  |  |  |  | 
CC(=O)OO [Peracetic Acid only, Peracetic acid] | 0.17 | Log 0.71 log | log 0.97 | log 1.19 | 37 | 0.45 | 1.25 | 168 | 0.052 | 1.5 | 70 | 0.2 | 1.24 | 223 | 0.055 | 1.13
